This is an account of results in patent US8017168B2, “High-potency sweetener composition with rubisco protein, rubiscolin, rubiscolin derivatives, ace inhibitory peptides, and combinations thereof, and compositions sweetened therewith” (The Coca-Cola Company, priority 2006, dated 2011).

Data set [1] has as its system mice. Particulars: oral administration, 100 mg per kg; cited from earlier work.
The nature of data set [2]: Rate of dissolution of rebaudioside A polymorph and amorphous forms in H2O at 25° C. It counts as physicochemical.
The format of data set [3] is physicochemical. As to the method:
A solution of rebaudioside A (>97% pure by HPLC) was prepared in double distilled water (12.5 gm in 50 mL, 25% concentration) by stirring the mixture at 40° C. for 5 minutes. An amorphous form of rebaudioside A was formed by immediately using the clear solution for spray drying with the Lab-Plant spray drier SD-04 instrument (Lab-Plant Ltd., West Yorkshire, U.K.). The solution was fed through the feed pump into the nozzle atomizer which atomized it into a spray of droplets with the help of a constant flow of nitrogen/air. […] This dry powder (11-12 g, H2O 6.74%) was discharged continuously from the drying chamber and was collected in a bottle.

Data set [4] can be described thus: Sensory evaluation of sweetness linger by expert panel, Example Set G (citric acid/potassium citrate lemon-lime base). In kind it is in vivo. On the set-up: key: 0: no sweetness linger; 1: very slight sweetness linger; 2: slight sweetness linger; 3: moderate sweetness linger; 4: moderately high sweetness linger; 5: high sweetness linger. The following applies: scale 0-5; for sweetness linger rating of control samples: 400 ppm REBA in citric acid/potassium citrate composition, 8 g sugar in 100 ml citrate buffer; for Sweetness Linger rating (defined anchors of the protocol): sucrose, 500 ppm REBA control sample. How it is done:
Sensory evaluation of the samples prepared in Example Set G was carried out under the following protocol, similar to that described hereinabove. In this test protocol, none of the samples were swallowed. All samples were expectorated and the mouth was rinsed with water after the tasting. Immediately upon sensing maximal sweetness, the sample was expectorated, the mouth was rinsed with water and the rate of sweetness decay (“Sweetness Linger”) was measured, where attention was focused on the sweetness 3-4 min after the water rinse. After sample tasting was complete, a salty oyster cracker was chewed followed by a water rinse, and at least 5 minutes followed before tasting the next sample. The sweetness linger was rated by a panel of experts in the sensory evaluation of foods and beverages using the following scale: 0=no sweetness linger, 1=very slight sweetness linger, 2=slight sweetness linger, 3=moderate sweetness linger, 4=moderately high sweetness linger, 5=high sweetness linger.
The “Sweetness Linger” rating for sucrose observed by this protocol is defined as 0. The Sweetness Linger of a 500 ppm of REBA control sample is defined as 5. Experimental samples were tasted by the same protocol, always allowing sufficient time between samples to ensure re-equilibration of the sensory system. Re-tasting of control samples during the course of the experiment was allowed and encouraged.
The comparison taste test was performed between two controls and addition of sweet taste improving additive on the onset and/or sweetness linger.
The effects of formulation change on the sweetness linger of 400 ppm REBA (equivalent to 8 g sucrose) in a citric acid/potassium citrate composition equivalent to that in a diet lemon-lime beverage were evaluated. The sweetness linger rating of this solution was determined to be 5.
8 g of sugar was dissolved in 100 ml of citrate buffer. The sweetness linger rating of this control sample was determined to be 0.

A short description of data set [5]: Sensory evaluation of sweetness linger by expert panel, Example Set H (phosphoric acid solution pH 2.4-2.5). Particulars: scale 0-5; 500 ppm REBA or 10 g sugar in 100 ml, carbon-treated water, phosphoric acid pH 2.4-2.5. Further details: key: 0: no sweetness linger; 1: very slight sweetness linger; 2: slight sweetness linger; 3: moderate sweetness linger; 4: moderately high sweetness linger; 5: high sweetness linger. In kind it is in vivo.

Ends that are not written are not given here.

As to YPLDLF [rubiscolin-6], the memory consolidation entry in data set [1] was “enhanced memory consolidation”.
rebaudioside A [Form 2]: the “Rate of dissolution in H2O at 25° C.” value in data set [2] (H2O, 25° C.) is listed as “(<30%/5 %/5 minutes”; in data set [2] (grade in words), “Intermediate”.
For rebaudioside A [Form 3], in that order: “(>30%/5 %/5 minutes” and “High”.
Take rebaudioside A [Form 4]: the “solubility in water at room temperature” value in data set [3] is greater than 35.0%. For the same compound, the “Rate of dissolution in H2O at 25° C.” value in data set [2] (H2O, 25° C.) was “(>35.0%/5 %/5 minutes”; in data set [2] (grade in words) it was “High”.
Regarding rebaudioside A, in data set [4], the “sweetness linger rating of control samples” value amounted to 5 and the “Sweetness Linger rating (defined anchors of the protocol)” value worked out at 5. Moreover, the “sweetness linger rating of control samples” value in data set [5] is recorded as 5.
For the compound rebaudioside A [Form 1], the “Rate of dissolution in H2O at 25° C.” value in data set [2] (H2O, 25° C.) was “(<0.2%/60 %/60 minutes”; in data set [2] (grade in words) it was “Very low”.
Consider `OC[C@H]1O[C@@](CO)(O[C@H]2O[C@H](CO)[C@@H](O)[C@H](O)[C@H]2O)[C@@H](O)[C@@H]1O` [sucrose], for which, in data set [4], the “sweetness linger rating of control samples” value is 0 and the “Sweetness Linger rating (defined anchors of the protocol)” value is given as 0. Moreover, the “sweetness linger rating of control samples” value in data set [5] was 0.
